Measured values taken from patent publication US10456339B2, “Organic hydroperoxide reduction in perfumery raw materials” (FIRMENICH SA, priority 2017, dated 2019).
Where “and” joins values, the source holds several entries; their conditions need not be identical. Equal values may be shown once. Read-outs that look alike come from different tables or passages of the source.

What was measured:
[1] = Reduction of POV in limonene using phenylglyoxylic acid; conditions: 200 mg in 20 mL, room temperature
Description: 20 mL of autoxidized limonene was placed in a 30 mL glass vial at room temperature, along with a stir bar and an argon gas blanket. 200 mg of phenylglyoxylic acid was added, which dissolved. The vial was shaken once and allowed to stand, while being monitored for POV value as a function of time.

[2] = Reduction of POV in model perfume using PhPA-DiMeC10A; conditions: […] w/v; 7 days after addition
Description: (§1) The mixed citrus oil was loaded into the solvent at approximately 16.7% v/v (40 mL oil into 200 mL solvent, 240 mL total perfume). Approximately 164 mg (1.1% w/v) of the PhPA-DiMeC10A salt was dissolved in 15 mL of the mixed citrus perfume, and POV measurements were taken as a function of time after the addition. An untreated perfume sample was handled similarly to the treated perfume and also tested, because the POV can rise rapidly with handling of the sample (opening the bottle, agitation, etc.).

[3] = Reduction of POV in sunflower oil using DiMeC10A-PhPA; conditions: for POV of treated oil: 0.3032 g in 15 mL sunflower oil
Source text: (§3) The mixture was allowed to stand on the benchtop in ambient laboratory light at room temperature, and POV measurements were taken periodically.

[4] = 0.3358 g in 15 mL sunflower oil; 23 days; indistinguishable from BLANK
[5] = POV of model perfume treated with AKG DiDeanol salt; conditions: 1.0% w/v
Description: (§2) A model perfume was made using 90/10 v/v ethanol/water as a solvent, and a mixture of orange, grapefruit, and bergamot oils as the perfume oil. The mixed citrus oil was loaded into the solvent at approximately 19.4% v/v (6 mL oil into 25 mL solvent). Approximately 200 mg (1.0% w/v) of the AKG DiDeanol salt was dissolved in 20 mL of the mixed citrus perfume, and POV measurements were taken as a function of time after the addition. An untreated perfume sample was handled similarly to the treated perfume and also tested, because the POV can rise rapidly with handling of the sample (opening the bottle, agitation, etc.).

[6] = Reduction of POV in mixed citrus oil using α-oxo-2-furanacetic acid; conditions: for Treated POV: 400 mg in 20 mL mixed citrus oil; for POV reduction: vs untreated oil at same time
Description: 20 mL of mixed citrus oil was placed in a 30 mL glass vial at room temperature, along with a stir bar and an argon gas blanket. 400 mg of α-oxo-2-furanacetic acid was added. The vial was shaken once and allowed to stand, while being monitored for POV value as a function of time. […] In this way, the undissolved solid acts as a sink to maintain a steady, low concentration of α-oxo-2-furanacetic acid dissolved in the mixed citrus oil.
In this case, because the time between measurements was relatively long (days instead of minutes), there is the possibility that the untreated mixed citrus oil will oxidize further during the course of the experiment. Therefore, the POV of the treated oil was still compared with the POV of the untreated oil, but the measurement of the untreated oil was re-determined at each time point (rather than just a single, initial value being used).

[7] = Reduction of POV in model perfume using oxaloacetic acid; conditions: 0.83% w/v; 24 hours after treatment
[8] = Reduction of POV in citrus oil using pyruvic acid
Description: 50 mL of mixed citrus oils (orange, lemon, lime, mandarin, bergamot, and tangerine) were placed in a 100 round bottom flask at room temperature, along with a stir bar and an argon gas blanket.
A 4:1 v/v isopropanol/pyruvic acid solution was made. 20 mL of this pyruvic acid solution was dripped into the stirred citrus oils at a rate of 0.25 mL/minute via the use of a syringe pump.
When the addition was complete, 10 mL of water and 100 mg of anhydrous sodium carbonate was added to the flask, and the stirring was maintained. When the visible evolution of CO2 had stopped (about 2-4 minutes), the aqueous layer was removed with a pipette and discarded. POV measurements were made on the mixed citrus oil before and after the pyruvic acid treatment.

[9] = Reduction of POV in model perfume using AKG-HEI; conditions: 1.0% w/v; 7 days after addition
Description: as §1, with “150” for “164”, “(1.0%” for “(1.1%”, “AKG-HEI” for “PhPA-DiMeC10A”

[10] = Reduction of POV in sunflower oil using 2-oxovaleric acid; conditions: 250 μL in 25 mL sunflower oil
Description: 25 mL of sunflower oil (from an off-the-shelf, opened 1 quart container with approximately 25% atmospheric headspace; storage time unknown) was placed in a 30 mL vial at room temperature. 250 μL of 2-oxovaleric acid was added. The vial was shaken and allowed to stand at ambient temperature in laboratory lighting on the benchtop. No further treatment was done prior to the POV testing.
POV measurements were made on the sunflower oil before and after the 2-oxovaleric acid treatment. The untreated oil was also re-measured periodically for comparison, since opening of the bottle replenishes atmospheric headspace and can cause the POV of the bottle contents to rise. The % reduction was always calculated versus the most recent POV value on the untreated oil, and if multiple measurements were made, an averaged value (shown in parentheses) was used for the calculation.

[11] = Surface tension of aqueous solution, pendant drop method; type: physicochemical; conditions: 0.14 weight % solution in water; pure water 71.57 mN/m
Description: The measurement was made on a Kruss DSA100S Tensiometer by the pendant drop method. […] This concentration was chosen so the results could be compared to the literature value for known surfactant sodium dodecyl sulfate (SDS) at 5 mM, which is approximately 0.15 weight %.

[12] = POV of model perfume treated with AKG-mono(DiMeC12A); conditions: 1.0% w/v; within 26 hours after the addition
Description: as §2, with “AKG-monoMeC12A” for “AKG DiDeanol”

[13] = POV of mixed citrus oil treated with AKG-DiMeC12A salt; conditions: 1.0% w/v, within 72 hours (3 days) after addition
Source text: In addition to the treatment done in a model perfume as described above, a similar experiment was done in mixed citrus oil. A sample of mixed citrus oil was made by combining lime, orange, grapefruit, lemon, mandarin, tangerine, and bergamot oils, so that a variety of terpene hydroperoxides would be present in the treated mixture being tested. […] An untreated mixed citrus oil sample was handled similarly to the treated oil and also tested, because the POV can rise rapidly with handling of the sample (opening the bottle, agitation, etc.).

[14] = Reduction of POV in sunflower oil using AKG-DiMeC12A; conditions: for POV of treated oil: 0.3062 g in 15 mL sunflower oil
Source text: as §3

[15] = POV of spiked consumer product: Skin Cream; conditions: 1% (w/w); for POV of treated Skin Cream: spiked with oxidized limonene
Description: This Example reports the treatment of exemplary consumer product formulations. […] All of the samples had not been fragranced, so the POV was be associated with autooxidized base components. The five consumer product formulations were spiked with an extremely oxidized limonene that was produced in a photoreactor as a source of mixed limonene hydroperoxide isomers (the POV was 1434 mmol/L).
Sample Preparation: 40 mL (Sample #3) or 40 g (Samples #1, 2, 4 & 5) were each spiked with 0.4 mL of oxidized limonene and mixed until homogeneous. Half of each spiked consumer product sample was transferred to a second container, and treated as described in the table below with 0.5-1% (w/w) of a 2-oxocarboxylic acid ammonium salt, then mixed to homogeneity. […]

[16] = Reduction of POV in model perfume using α-ketoglutaric acid; conditions: 1.2% w/v; 24 hours after treatment

## O=C(O)C(=O)c1ccccc1 [phenylglyoxylic acid]
[1]
  solubility in autoxidized limonene: dissolved

## CCCCCCCCCCN(C)C.O=C(O)C(=O)Cc1ccccc1 [DiMeC10A-PhPA]
[2]
  reduction in POV relative to untreated material: 87.2%
[3]; 0.3032 g in 15 mL
  solubility in sunflower oil: majority of the salt dissolved, but some undissolved solid remained
[3]; 55 minutes
  POV of treated oil: 3.78 mmol/L
  % Reduction in POV: 77.2%
[3]; 140 minutes, indistinguishable from BLANK
  POV of treated oil: 0.00 mmol/L
[3]; 1320 mins (22 hrs), indistinguishable from BLANK
  POV of treated oil: 0.00 mmol/L
[3]; 23 days, indistinguishable from BLANK
  POV of treated oil: 0.00 mmol/L
[3]; 140 minutes
  % Reduction in POV: 100%
[3]; 1320 mins (22 hrs)
  % Reduction in POV: 100%
[3]; 23 days
  % Reduction in POV: 100%

## CCCCCCCCCCN(C)C.O=C(O)C(=O)c1ccco1 [FAA-DiMeC10A]
[4]
  POV of treated oil: 0.00 mmol/L

## CN(C)CCO.CN(C)CCO.O=C(O)CCC(=O)C(=O)O [AKG DiDeanol]
[5]; 60 min
  POV Treated Perfume: 5.95 mmol/L
[5]; 75 min
  POV Treated Perfume: 5.66 mmol/L
[5]; 115 min
  POV Treated Perfume: 4.96 mmol/L
[5]; 195 min
  POV Treated Perfume: 3.20 mmol/L
[5]; 210 min
  POV Treated Perfume: 3.08 mmol/L
[5]; 300 min (5 hours)
  POV Treated Perfume: 2.31 mmol/L
[5]; 370 min
  POV Treated Perfume: 1.73 mmol/L
[5]; 380 min
  POV Treated Perfume: 1.72 mmol/L
[5]; […] (24 hours), indistinguishable from blank
  POV Treated Perfume: 0.0 indistinguishable from mmol/L

## O=C(O)C(=O)c1ccco1 [α-Oxo-2-furanacetic acid, α-oxo-2-furanacetic acid]
[6]; 400 mg in 20 mL
  solubility in mixed citrus oil: majority of the added α-oxo-2-furanacetic acid did not dissolve
[6]; 2 days since addition
  Treated POV: 18.566 mEq/L
[6]; 4 days
  Treated POV: 17.193 mEq/L
  POV reduction: 39.8%
[6]; 44 days
  Treated POV: 1.106 mEq/L
  POV reduction: 96.2%
[6]; 2 days
  POV reduction: 26.8%

## O=C(O)CC(=O)C(=O)O [oxaloacetic acid]
[7]
  reduction in the POV of the formulated perfume: complete reduction

## CC(=O)C(=O)O [pyruvic acid]
[8]; 50 mL mixed citrus oils, 20 mL 4:1 v/v isopropanol/pyruvic acid at 0.25 mL/minute, POV before treatment 27.261 mEq/L
  POV after treatment: 4.786 mEq./L
[8]; after vs before pyruvic acid treatment
  reduction in POV: ~82%

## O=C(O)CCC(=O)C(=O)O.O=C1NCCN1CCO.O=C1NCCN1CCO [AKG-HEI]
[9]
  reduction in POV relative to untreated material: 92.1%

## CCCC(=O)C(=O)O [2-oxovaleric acid]
[10]; 23 hours
  POV, single measurements: 4.95 mmol/L and 4.67 mmol/L
[10]; 46 hours
  POV, single measurements: 5.34 mmol/L and 5.10 mmol/L
[10]; 15 days
  POV, single measurements: 2.27 mmol/L and 2.05 mmol/L and 1.99 mmol/L

## CCCCCCCCCCCCN(C)C.O=C(O)CCC(=O)C(=O)O [AKG-mono(DiMeC12A)]
[11]
  surface tension: 32.93 mN/m
[12]
  reduction in the POV: total and complete reduction

## CCCCCCCCCCCCN(C)C.CCCCCCCCCCCCN(C)C.O=C(O)CCC(=O)C(=O)O [AKG-DiMeC12A]
[13]
  reduction in the POV: 89.0%
[14]; 50 minutes
  POV of treated oil: 15.36 mmol/L
  % Reduction in POV: 7.2%
[14]; 1320 mins (22 hrs)
  POV of treated oil: 12.68 mmol/L
  % Reduction in POV: 23.5%
[14]; 23 days
  POV of treated oil: 3.05 mmol/L
  % Reduction in POV: 83.6%
[11]
  surface tension: 32.08 mN/m
[15]; 140 minutes
  % Reduction in POV: 56.7%
  POV of treated Skin Cream: 6.06 mmol/L
[15]; 300 minutes (5 h)
  % Reduction in POV: 68.4%
  POV of treated Skin Cream: 4.5 mmol/L
[15]; 26 hrs
  % Reduction in POV: 84.6%
  POV of treated Skin Cream: 2.08 mmol/L
[15]; 4 days
  % Reduction in POV: 90.9%
  POV of treated Skin Cream: 1.16 mmol/L
[15]; 8 days
  % Reduction in POV: 93.0%
  POV of treated Skin Cream: 0.82 mmol/L
[15]; 15 days
  % Reduction in POV: 100.0%
  POV of treated Skin Cream: 0 mmol/L

## O=C(O)CCC(=O)C(=O)O [α-ketoglutaric acid]
[16]
  reduction in the POV of the formulated perfume: complete reduction
